In the assay the test system is HCT116 cells. Put plainly: Cell viability assay (CellTiter-Glo, 72 hours) in HCT116 human colorectal cancer cells. It counts as cell-based. In outline:
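Ten-point IC50 came from an asymmetric five-parameter fit of luminescence corrected to vehicle wells. ATP content was measured by CellTiter-Glo 72 h after dosing at 37 °C. Cells were seeded at 2,000/well the day before, with 0.5% DMSO in all wells.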

The mark [1] stands for this setting: Homo sapiens, HCT-116, Table 5, HCT116, 72 hours, read-out: Activity.
[2] abbreviates: Table 8, analogs of scaffold drawing 43 defined by R^2, R^3, X/Y, W, read-out: Activity (IC50 class, cell viability assay).
[3] abbreviates: Table 7, cell viability assay, CellTiter-Glo, 72 hours, scaffold drawing 42 with R^2, R^3, X/Y, Z, read-out: Activity.
Where [4] appears, read: cell viability assay, Table 10 analogs of scaffold drawing 45 defined by R2, R3, X/Y, W, read-out: Activity.
Where [5] appears, read: Table 9, HCT116, 72 hours, read-out: Activity.
[6] abbreviates: Homo sapiens, HCT-116, Table 6, HCT116, 72 hours, read-out: Activity.
[7] abbreviates: Table 5, HCT116, 72 hours, read-out: Activity.
[8] abbreviates: Table 6, HCT116, 72 hours, read-out: Activity.

Read-outs that look alike come from different tables or passages of the source.

As for `CCC/C=C/CN1C(=O)c2ccccc2Sc2cc(Nc3nccnc3OC)ccc21` [(E)-10-(Hex-2-en-1-yl)-7-((3-methoxypyrazin-2-yl)amino)dibenzo[b,f][1,4]thiazepin-11 (10H)-one], under setting [1], the IC50 lay within 500 to 1000 nM.
As for `O=C(Nc1cnc2c(c1)Sc1ccccc1C(=O)N2CC#CC1CC1)C1CCOC1` (stereo not shown), the IC50 under setting [2] was under 500 nM.
For `COCCN1C(=O)c2ccccc2Sc2cc(NC(=O)c3ccc4oc(=O)[nH]c4c3)ccc21`, the IC50 under setting [3] was in the range of 1000 to 5000 nM.
With `CC#CCN1C(=O)c2cc(F)ccc2Sc2cc(NC(=O)C34CC(O)(C3)C4)cnc21`, the IC50 under setting [2] was under 500 nM.
On the same count and under the same terms, the same measure for `CC#CCN1C(=O)c2ccc(F)cc2Sc2cc(NC(=O)CC3COC3)ccc21` [—CH2CCMe; (oxetan-3-yl)CH2; CF/CH; CH]: under 500 nM.
The same measure, in the same setting: the same measure for `CC#CCN1C(=O)c2cc(F)ccc2Sc2cc(NC(=O)C3CC4(CC(O)C4)C3)cnc21` (stereo not shown): under 500 nM.
Turning to `COCCN1C(=O)c2ccccc2Sc2cc(NC(=O)c3ccc(OC(F)(F)F)cc3)ccc21` [compound 4], the IC50 (Homo sapiens, HCT-116, read-out: IC50s (cellular activity of MM017 derivatives)) turned out to be 2100 nM.
For the compound `COC12CC(C(=O)Nc3cnc4c(c3)Sc3ccccc3C(=O)N4CC#CCF)(C1)C2`, under setting [4], the IC50 was under 500 nM.
For `O=C(Nc1cnc2c(c1)Sc1ccccc1C(=O)N2CC#CC1CC1)C1CC2(CC(=NO)C2)C1` (stereo not shown), the IC50 under setting [2] is under 500 nM.
Consider `CC#CCN1C(=O)c2ccccc2Sc2cc(NC(=S)N[C@H]3C[C@@H](O)C3)ccc21` [Table 4: —CH2CCMe; cis-3-OH-cBu; CH], for which the IC50 (Table 4, HCT116, 72 hours, read-out: Activity) was under 500 nM.
In the case of `COC1CC(C(=O)Nc2ccc3c(c2)C(C#N)c2ccccc2C(=O)N3CC#CCF)C1` (stereo not drawn) [Table 9: —CH2CCCH2F; cis-3-MeOcBu; CHCN], under setting [5], the IC50 was under 500 nM.
With `COCCN1C(=O)c2ccccc2Sc2cc(NC(=O)c3ccn4ccnc4c3)ccc21`, the IC50 under setting [3] lay within 1000 to 5000 nM.
For the compound `COC1CC(C(=O)Nc2ccc3c(c2)C(C)c2ccccc2C(=O)N3CC#CC2CC2)C1` (stereo not shown), the IC50 under setting [5] is under 500 nM.
As for `COCCN1C(=O)c2ccccc2Sc2cc(NC(=O)c3ccc(OC(F)(F)F)c(F)c3)ccc21` [—(CH2)2OMe; 3-F,4-F3COPh; CH/CH; S], the IC50 under setting [3] was 1000 to 5000 nM.
As to `CC#CCN1C(=O)c2ccccc2Sc2cc(NC(=O)c3ccc4scnc4c3)ccc21`, the IC50 under setting [2] was under 500 nM.
With `CCC/C=C/CN1C(=O)c2ccccc2Sc2cc(Nc3ccccn3)ccc21` [(E)-10-(Hex-2-en-1-yl)-7-(pyridin-2-ylamino)dibenzo[b,f][1,4]thiazepin-11 (10H)-one], the IC50 under setting [1] fell in the range of 500 to 1000 nM.
`CC1c2ccccc2C(=O)N(CC#CC2CC2)c2ccc(NC(=O)[C@@H]3C[C@H]3CO)cc21` (relative stereo): under setting [5], the IC50 is under 500 nM.
`C=CCCCOCCN1C(=O)c2ccccc2Sc2cc(NC(=O)c3ccoc3)ccc21`: under setting [3], the IC50 is under 500 nM.
In the case of `CC#CCN1C(=O)c2ccccc2C(C)c2cc(NC(=O)CCCOC)ccc21` (stereo not shown) [Table 9: —CH2CCMe; (CH2)3OMe; CHMe], under setting [5], the IC50 is under 500 nM.
For the compound `CC#CCN1C(=O)c2ccc(F)cc2Sc2cc(Nc3ncccc3C3CC3)ccc21` [10-(But-2-yn-1-yl)-7-((3-cyclopropylpyridin-2-yl)amino)-3-fluorodibenzo[b,f][1,4]thiazepin-11 (10H)-one], the IC50 under setting [1] is under 500 nM.
As to `CC#CCN1C(=O)c2ccccc2Sc2cc(NC3CC4(COC4)C3)ccc21` [7-((2-Oxaspiro[3.3]heptan-6-yl)amino)-10-(but-2-yn-1-yl)dibenzo[b,f][1,4]thiazepin-11 (10H)-one], the IC50 under setting [6] was under 500 nM.
Consider `CC#CCN1C(=O)c2ccccc2Sc2cc(NC(=O)CCCO)cnc21` [—CH2CCMe; (CH2)3 OH; CH/CH; N], for which the IC50 under setting [2] was under 500 nM.
Regarding `CC#CCN1C(=O)c2ccccc2Sc2cc(Nc3ncc(C)cc3C)cnc21`, under setting [7], the IC50 was under 500 nM.
For the compound `CC#CCN1C(=O)c2ccccc2C(C)c2cc(NC(=O)c3ccc(OC)cc3)ccc21` (stereo not shown) [Table 9: —CH2CCMe; 4-MeOPh; CHMe, N-(5-(But-2-yn-1-yl)-11-methyl-6-oxo-6,11-dihydro-5H-dibenzo[b,e]azepin-2-yl)-4-methoxybenzamide], where the note is “Homo sapiens, HCT-116, Table 9, HCT116, 72 hours, read-out: Activity”, the IC50 was under 500 nM.
For the compound `CC#CCN1C(=O)c2ccccc2Cc2cc(Nc3nccnc3C#N)ccc21` [3-((5-(But-2-yn-1-yl)-6-oxo-6,11-dihydro-5H-dibenzo[b,e]azepin-2-yl)amino) pyrazine-2-carbonitrile], under setting [1], the IC50 is under 500 nM.
`COCCN1C(=O)c2ccccc2Sc2cc(NC(=O)c3cccc(F)c3)ccc21` [—(CH2)2OMe; 3-FPh; CH/CH; S]: the IC50 under setting [3] was in the range of 1000 to 5000 nM.
For the compound `CC#CCN1C(=O)c2ccccc2Sc2cc(NC(=O)C34CC(OC)(C3)C4)ccc21`, the IC50 under setting [2] was under 500 nM.
Same read-out and setting: the same measure for `CC#CCN1C(=O)c2cc(F)ccc2Sc2cc(NC(=O)C34CC(OC)(C3)C4)cnc21`: under 500 nM; for `O=C(CC1COC1)Nc1ccc2c(c1)Sc1ccccc1C(=O)N2CC#CC1CC1` [—CH2CC^cPr; (oxetan-3-yl)CH2; CH/CH; CH]: under 500 nM.
Regarding `O=C1c2ccccc2Sc2cc(NC3CC(O)C3)ccc2N1CC#CCl` (stereo not shown) [Table 6: —CH2CCCl; 3-HOcBu; CH/CH; S], the IC50 under setting [8] is under 500 nM.
On to `CC#CCN1C(=O)c2ccccc2Sc2cc(NC3CC(CO)C3)ccc21` (stereo not shown) [Table 6: —CH2CCMe; 3-HOCH2-cBu; CH/CH; S, 10-(But-2-yn-1-yl)-7-((3-(hydroxymethyl)cyclobutyl)amino)dibenzo[b,f][1,4]thiazepin-11 (10H)-one], for which, under setting [6], the IC50 is under 500 nM.
With `CC#CCN1C(=O)c2ccccc2C(C)(O)c2cc(NC(=O)[C@H]3C[C@H](OC)C3)ccc21` (stereo partly drawn) [Table 9: —CH2CCMe; trans-3-MeOcBu; CMeOH], the IC50 under setting [5] was under 500 nM.
As for `C#CCN1C(=O)c2ccccc2Sc2cc(NC3COC3)cnc21` [Table 6: —CH2CCH; oxetan-3-yl; CH/N; S], under setting [8], the IC50 was under 500 nM.
Regarding `CO[C@H]1C[C@@H](C(=O)Nc2ccc3c(c2)Cc2ccccc2C(=O)N3CC#CC2CC2)C1` [Table 9: —CH2CCCPr; cis-3-MeOcBu; CH2], the IC50 under setting [5] was under 500 nM.
In the case of `CC#CCN1C(=O)c2ccccc2Sc2cc(NC(=O)C3CCCN3C)ccc21` (stereo not shown), the IC50 under setting [2] is under 500 nM.
For `CC#CCN1C(=O)c2ccccc2Sc2cc(Nc3ncccc3OC)cnc21`, under setting [7], the IC50 is under 500 nM.
Turning to `CCC/C=C/CN1C(=O)c2ccccc2Sc2cc(Nc3cc(C4CC4)ccn3)ccc21` [(E)-7-((4-Cyclopropylpyridin-2-yl)amino)-10-(hex-2-en-1-yl)dibenzo[b,f][1,4]thiazepin-11(10H)-one], the IC50 under setting [1] is 500 to 1000 nM.
Take `CC#CCN1C(=O)c2cc(F)ccc2Sc2cc(NC(=O)c3ccc(OC)cc3)ccc21` [—CH2CCMe; 4-MeOPh; CH/CF; CH]: the IC50 under setting [2] was under 500 nM.
With `CCC/C=C/CN1C(=O)c2ccccc2Sc2cc(Nc3ncccc3C)ccc21` [(E)-10-(Hex-2-en-1-yl)-7-((3-methylpyridin-2-yl)amino)dibenzo[b,f][1,4]thiazepin-11 (10H)-one], under setting [1], the IC50 is under 500 nM.
As for `CC#CCN1C(=O)c2ccccc2Sc2cc(Nc3cnn(C)c3)ccc21` [10-(But-2-yn-1-yl)-7-((1-methyl-1H-pyrazol-4-yl)amino)dibenzo[b,f][1,4]thiazepin-11 (10H)-one], under setting [1], the IC50 is under 500 nM.
On to `CC#CCN1C(=O)c2ccc(Cl)cc2Sc2cc(NC(=O)OCCOC)ccc21` [—CH2CCMe; O(CH2)2OMe; CCl/CH; CH], for which, under setting [2], the IC50 is under 500 nM.
On the same count and under the same terms, the same measure for `CON=C1CC2(C1)CC(C(=O)Nc1cnc3c(c1)Sc1ccc(F)cc1C(=O)N3CC#CC1CC1)C2` (stereo not shown): under 500 nM.
Regarding `CC=CCN1C(=O)c2ccccc2Sc2cc(Nc3ncccc3F)ccc21`, the IC50 under setting [7] is under 500 nM.
`COCC1CC(C(=O)Nc2cnc3c(c2)Sc2ccccc2C(=O)N3CC#CC2CC2)C1` (stereo not shown) [—CH2CCcPr; 3-MeOCH2-cBu; CH/CH; N]: under setting [4], the IC50 is under 500 nM.
Regarding `CO[C@H]1C[C@H](C(=O)Nc2ccc3c(c2)Cc2ccccc2C(=O)N3CC#CC2CC2)C1` [Table 9: —CH2CCCPr; trans-3-MeOcBu; CH2], the IC50 under setting [5] was under 500 nM.
For `CC=CCN1C(=O)c2ccccc2Sc2cc(Nc3nccnc3C)cnc21`, the IC50 under setting [7] was under 500 nM.
Regarding `CC1c2ccccc2C(=O)N(CC#CC2CC2)c2ccc(NC(=O)C3CC4(CC(=NO)C4)C3)cc21` (stereo not shown), under setting [5], the IC50 was under 500 nM.
For `O=C1c2ccccc2Sc2cc(Nc3cccnn3)cnc2N1CC#CCl`, under setting [7], the IC50 is under 500 nM.
In the case of `CC#CCN1C(=O)c2ccc(C#N)cc2Sc2cc(Nc3ncc(C#N)cc3C)ccc21` [10-(But-2-yn-1-yl)-7-((5-cyano-3-methylpyridin-2-yl)amino)-11-oxo-10,11-dihydrodibenzo[b,f][1,4]thiazepine-3-carbonitrile], the IC50 under setting [1] is under 500 nM.
With `CO[C@H]1C[C@@H](C(=O)Nc2cnc3c(c2)Sc2ccccc2C(=O)N3CC#CC(F)(F)F)C1` [—CH2CCCF3; cis-3-MeOcBu; CH/CH; N], the IC50 under setting [2] was under 500 nM.
Same read-out and setting: the same measure for `C#Cc1ccc(C(=O)Nc2ccc3c(c2)Sc2ccccc2C(=O)N3CC#CC)cn1` [—CH2CCMe; 6-(HCC)pyrid-3-yl; CH/CH; CH]: under 500 nM.
As to `COCCN1C(=O)c2ccccc2Sc2cc(NC(=O)c3ccc(Cl)c(OC)c3)ccc21` [—(CH2)2OMe; 3-MeO,4-ClPh; CH/CH; S], the IC50 under setting [3] fell in the range of 500 to 1000 nM.
Regarding `CC#CCN1C(=O)c2ccc(F)cc2Sc2cc(NC(=O)C3CC4(CC(=NO)C4)C3)cnc21` (stereo not shown), the IC50 under setting [2] was under 500 nM.
Same read-out and setting: the same measure for `CC#CCN1C(=O)c2ccccc2Sc2cc(NC(=O)CC3COC3)cnc21` [—CH2CCMe; (oxetan-3-yl)CH2; CH/CH; N]: under 500 nM.
Consider `CCCC=CCN1C(=O)c2ccccc2Sc2cc(Nc3ncccc3F)cnc21`, for which the IC50 under setting [7] was under 500 nM.

These data come from patent US20260097047A1, “Small molecule inhibitors of the ribosome biogenesis factor NVL2” (Board of Regents, The University of Texas System, priority 2023, published 2026).
